A melting point compilation (Tetko et al.; mined from patent text by program, amines drawn as free bases though some values may be those of a salt)

| melting point [°C] | Structure (SMILES) |
| --- | --- |
| 79 to 85 | CCOC(=O)CCn1c(C(=O)Nc2nc(-c3cc(OC)c(Cl)cc3OC)c(CCC3CCCCC3)s2)cc2ccccc21 |
| 80 to 90 | Cc1c(-c2ccc(O)cc2)n(Cc2ccc(OCCN3CCC(O)CC3)cc2)c2ccc(O)cc12 |
| 159 to 162 | COC(=O)C(c1ccc(NC(C)=O)cc1)C1CC1 (stereo unspecified) |
| 95.5 to 98 | CN(C)Cc1ccc(CSCCNc2ncc(Cc3ccn(Cc4ccccc4)c(=O)c3)c(=O)[nH]2)o1 |
| 140 to 143 | CC(C)(C)c1ccc(C2(C)CC(=Cc3ccccc3)CC2=O)cc1 (stereo unspecified) |
| 122 to 123 | COc1ccc(-c2cc(C(=O)NCc3ccccn3)c(=O)n(C)n2)cc1 |
| 87 to 90 | O=[N+]([O-])c1cccc(N2CCOCC2)c1 |
| 243 | Cc1nc2c(N)nc3ccccc3c2n1OC(C)C |
| 168 to 169 | CCCCOc1cc2ccc(C(=O)O)cc2cc1OCCCC |
| 189 to 191 | COc1cc(C(=O)N(C(C)C)C2CCCCC2)ccc1Cn1cnc2ncccc21 |
| 87 to 88 | COc1cc(CCC(=O)c2c(OC)cc(OC)c(CCC(C)C)c2OCC(=O)O)ccc1O |
| 213 to 214 | CN(c1cccc2c(F)c(C3=NCC(CC(=O)O)S3)[nH]c12)S(=O)(=O)c1cccs1 (stereo unspecified) |
| 164 to 166 | CC1(C)C=C(N2Cc3ccccc3C2=O)c2cc(S(=O)(=O)C(F)(F)C(F)(F)C(F)(F)F)ccc2O1 |
| 246 to 247 | Cc1ccnc(-c2nc(=O)c3ccc(Cl)cc3s2)c1 |
| 138 to 140 | CC1(C)CCCC1CNC(=O)C=Cc1ccc(C(=O)O)cc1 (stereo unspecified) |
| 256 to 258 | CCc1nc(N)nc(N)c1-c1ccc(N(C)C)c([N+](=O)[O-])c1 |
| 191 | COc1ccc(S(=O)(=O)N2C(=O)C(OC(=O)Oc3ccccc3)(c3ccccc3C(F)(F)F)c3cc(Cl)ccc32)c(OC)c1 (stereo unspecified) |
| 94 to 95 | COC(=O)c1cccc(CCN(C)CCCC(C#N)(C(=O)OC)c2ccc(OC)c(OC)c2)c1 (stereo unspecified) |
| 110 | Cc1cccc(C(=O)O)c1N(C)S(=O)(=O)c1ccc(OCCCCNC(=O)c2ccc3c(c2)OCO3)cc1 |
| 123 to 125 | COc1cc2c3c(sc2c(Cl)c1Cl)CCCC3 |

| melting point [°C] | Structure (SMILES) |
| --- | --- |
| 125 to 128 | CCN(CC)CCCC1CCCCN1C(=O)N1c2ccccc2C(=O)Nc2cccnc21 (stereo unspecified) |
| 189 | NS(=O)(=O)c1cccc(-c2cn(-c3nc(-c4ccc(Cl)s4)cc(C(F)(F)F)n3)cn2)c1 |
| 120 to 121 | COc1cc2c(cc1OC)C(CNC(=O)N(C)O)CC2 (stereo unspecified) |
| 204 to 206 | CCCCN(Cc1ccc2c(Br)c(OCc3nnn[nH]3)ccc2c1)C(=O)c1c(C)oc2ccccc12 |
| 107 to 109 | CN(C)c1ccc(CC(=O)N2CCC(c3[nH]nc4c3C(=O)c3c(NC(=O)NN5CCOCC5)cccc3-4)CC2)cc1 |
| 260 | O=P1(O)Oc2c(-c3ccccc3)cc(Cl)cc2-c2ccccc21 |
| 47.5 to 48 | O=C(Cc1ccc(Br)cc1)OCc1ccccc1 |
| 221 | O=c1c(Cl)c(Cl)cnn1-c1ccc([N+](=O)[O-])cc1 |
| 83 to 84 | Cc1ccc(Sc2ccccc2)c(CC(=O)O)c1 |
| 176 to 177 | COc1ccc(C(=O)Nc2ccccc2)cc1NC(=S)Nc1cccc(C(C)=O)c1 |
| 203 to 205 | O=CNc1cccc2ccc(O)cc12 |
| 140 to 141 | Cc1nc(NC(=O)c2ccccc2OC(F)(F)F)sc1C(=O)NCc1ccccc1 |
| 204 | CCC1(C)CCN(C(=O)CN(C(=O)CNC(=O)Nc2cccc(C)c2)c2ccccc2)CC1 |
| 118 to 120 | COc1ccc(C2CC(=O)OC(=O)C2)cc1OC |
| 225 to 226 | Cn1c(=O)c(NC(=O)Nc2ccc(F)cc2F)c(-c2ccccc2Cl)c2cccnc21 |
| 192 to 194 | CC(C)c1nc(CO)n(Cc2ccc([N+](=O)[O-])cc2)c1Sc1cc(Cl)cc(Cl)c1 |
| 150 to 161 | O=C1CCCc2nc3ccccc3c(NCc3ccccc3Cl)c21 |
| > 250 | Cn1ncc(C(=O)O)c1C(=O)Nc1ccn2nc(N3CCCC3)nc2c1 |
| 109 to 110 | CCn1ncc2c3c(NCc4ccc(OC)c(Cl)c4)nnc(N4CCC(O)CC4)c3cnc21 |
| 95 to 98.5 | COc1ccc(Cc2nc3cccc([N+](=O)[O-])c3o2)cc1OC1CCCC1 |

| melting point [°C] | Structure (SMILES) |
| --- | --- |
| 287 to 288 | O=C(C=c1sc2n(c1=O)Cc1ccccc1N=2)NC1CCCCC1 |
| 161 | O=c1nc(-c2cccc(Oc3ccccc3)n2)sc2ccccc12 |
| 72 to 81 | CC(C)(C)CC(C)(C)c1cc(Cl)c(O)c(-n2nc3ccc(C(F)(F)F)cc3n2)c1 |
| 248 | CC(=O)Nc1ccc(CCNc2nc(C)nc3sc(C)cc23)cc1 |
| 141 to 142 | Fc1ccc2[nH]cc(Cc3ccncc3)c2c1 |
| 56 to 57.5 | CN(C)CSc1ccc(-n2cnnn2)cc1 |
| 86 to 87 | CCOC(=O)c1ccc(OCc2ccc3ccccc3c2)c(OC)c1 |
| 146 to 150 | COc1cc2c(Nc3ccc(Oc4ccccc4OC)cc3)c(C#N)cnc2cc1F |
| 175 to 176 | Cc1nn(-c2ccccn2)c2nc3cc(F)c(F)cc3c(Cl)c12 |
| 124 to 125 | Cc1oc(-c2ccccc2)nc1COc1ccc(Cn2cc(CCC(=O)O)cn2)cc1 |
| 248 to 249 | COC(=O)Cn1nnc(-c2ccc(C=Cc3ccc(-c4nc5ccccc5o4)cc3)cc2)c1C#N |
| 175 | CC(C)(C)OC(=O)N1CCC(Nc2nccc(-c3c(-c4ccc(F)cc4)nc4occn34)n2)CC1 |
| 162 | N#Cc1c(N2CCNCC2)c2cc(F)ccc2n(Cc2ccccc2)c1=O |
| 143 to 144 | CCCc1ccc(-n2ncc(C#N)c2NC(C)=O)c(Cl)c1 |
| 289 to 290 | O=C(O)c1cc(O)c2c3c(cc(Br)c2n1)S(=O)c1ccccc1-3 (stereo unspecified) |
| 204 to 205 | COc1cc2c(cc1[N+](=O)[O-])NC(=O)CN(C(=O)C(F)(F)F)C2 |
| 185 | CCNC(=O)c1ccc(-n2nnc(C(=O)NC3CC3)c2CO)c(O)c1 |
| 170 to 174 | O=C1NC(=O)C(Cc2ccc(C(=O)COc3ccccc3)cc2)S1 (stereo unspecified) |
| 192 | CON(C)C(=O)C(O)CNC(=O)c1cc2cc(Cl)ccc2[nH]1 (racemic) |
| 116 | O=c1c2cc(Oc3ccc(Cl)cc3)ccc2ccn1Cc1cccnc1 |

Continued, compound first:

| Structure (SMILES) | melting point [°C] |
| --- | --- |
| CC1(C(O)(COc2ccc(Cl)cc2)Cn2cncn2)CC1(F)F (stereo unspecified) | 110 |
| CCCc1ccc2nc(Cl)cn2n1 | 73.9 to 80 |
| CCCCC(=O)NC(Cc1ccccc1)C(=O)Nc1c(C(C)C)cccc1C(C)C (stereo unspecified) | 237 to 238 |
| C[C@H](NC(=O)CC#N)C(=O)N1CCC[C@H]1C(=O)Nc1ccccc1 | 183 to 184 |
| CN1C(=O)CCc2cc(Cl)ccc21 | 76 to 78 |
| O=c1c2ccccc2ncn1CCN1CC=C(c2c[nH]c3ccccc23)CC1 | 132 |
| CCOC(=O)c1ncc2[nH]c3c(C(C)(C)C)cc(C(C)(C)C)cc3c2c1C | 260 to 263 |
| Cc1ccc(-c2nc(CCl)cs2)s1 | 89 to 90 |
| CCOC(=O)c1cn(CC)c2nc(N3CCN(C)CC3)ncc2c1=O | 146 to 147 |
| OCC(O)C1OC(Sc2ccccc2)C(O)C1O (stereo unspecified) | 105 to 107 |
| CC(C)(C)c1cc(N=Nc2cc(Cl)ccc2Cl)c(O)c(C(C)(C)C)c1 | 121 to 126 |
| CC(C)C1(C)Cc2cc(OCC(=O)O)c(Cl)c(Cl)c2C1=O (stereo unspecified) | 148 |
| C=C1CC2C(CCC3(C)C2CCC3(OC(=O)CCCCC)C(C)=O)C2(COC(C)=O)CCC(=O)C=C12 (stereo unspecified) | 111 to 112 |
| OCCON=Cc1ccncc1 | 78 to 80 |
| CC(O)CNC1(F)C=CC(N)=C([N+](=O)[O-])C1 (stereo unspecified) | 97 |
| N#Cc1ccccc1C(F)(F)C(F)(F)c1ccccc1 | 84 to 86 |
| O=C(NC1CN2CCC1CC2)c1cccc2oc(-c3ccccc3)nc12 (stereo unspecified) | 77 to 80 |
| C[C@@H](NC(=O)[C@H](Cc1ccc(OC(C)(C)C)cc1)N(C)C(=O)OC(C)(C)C)C(=O)O | 109 to 110 |
| COCCCNC(=O)C(C)(C(C)C)C(C)C | 10 |
| O=C(O)c1cnc(S)n1Cc1cc(F)cc(F)c1 | 240 to 241 |
| CCCCCCCC=CC1=Nc2ccc(F)cc2C(=O)C1C (stereo unspecified) | 192 to 193 |

| Structure (SMILES) | melting point [°C] |
| --- | --- |
| CCCCCc1c(CO)nc(C(C)C)c(CO)c1-c1ccc(F)cc1 | 135 to 136 |
| Clc1ccc2c(c1)C=C(n1ccnc1)CO2 | 118 to 120 |
| CSc1ccc(C(CC(F)(F)F)=NO)cc1 | 106 to 107 |
| CCCCCCCCC(CCC(=O)O)C(C)=O (stereo unspecified) | 36 to 38 |
| COC(=O)NCOC(=O)N=CNc1c(Cc2cccnc2)c[nH]c1C(=O)OC | 160 to 162 |
| Cc1cc2c(s1)CNCC2O (stereo unspecified) | 120 |
| CC(C)(C)OC(=O)NCCCCC(=O)Nc1ccc(OCc2ccccc2)c(C(=O)NCCC(=O)OCc2ccccc2)c1 | 97 to 99 |
| Cc1cc(C#N)cc(Oc2[nH]c(=O)[nH]c(=O)c2C(C)C)c1 | 272 to 275 |
| O=Cc1ccc2c(c1I)OCO2 | 124 to 126 |
| CCn1nc2c(N)nc3cnccc3c2c1CC(C)(C)C | > 260 |
| CC(C)Cn1c(=O)n(C)c(=O)c2nc(-c3ccc(/C=C/C(=O)O)cc3)[nH]c21 | > 300 |
| CCCCC1=NOC(Cc2ccccc2)C(=O)N1 (stereo unspecified) | 82 to 85 |
| CC(=O)C(=NNc1ccc(C)cc1)Sc1ccc(Cl)cc1 | 133 to 136 |
| Cc1cc(Cl)c(C(=O)c2cc(C)c(C)cc2Cl)cc1C | 148 to 149 |
| CC(C)CCCC(C)C1CCC2C3CC=C4CC(OCCCCCCO)CCC4(C)C3CCC12C (stereo unspecified) | 75.9 to 81 |
| O=[N+]([O-])C=C(NCCCCc1nc[nH]c1Br)NCCCCc1nc[nH]c1Br | 198 to 200 |
| CCCc1c(C(=O)CC)c2ccc(C(N)=O)cc2n1Cc1ccccc1Cl | 151 to 152 |
| NNC(=O)C(F)(F)c1cccc(Cl)n1 | 165 to 167 |
| CC12CCC(=O)C=C1CC(O)C1C2CCC2(C)C(O)CCC12 (stereo unspecified) | 191 to 193 |
| C#Cc1cn(C2CC(O)C(COC(=O)C(C)(C)C)O2)c(=O)[nH]c1=O (stereo unspecified) | 64 to 66 |
